# Experimental data: article PMC5839340 (Biochemistry, 2018)
# Assays:
# [1] = biological target: Hsc70 (Mus musculus, UniProt P63017); experiment: DRaCALA with [α-32P]ATP; type: binding
# [2] = biological target: Hsc70 C17W (Mus musculus, UniProt P63017, C17W); experiment: DRaCALA with [α-32P]ATP; type: binding
# Chain of Hsc70 C17W (P63017 5-554 C17W): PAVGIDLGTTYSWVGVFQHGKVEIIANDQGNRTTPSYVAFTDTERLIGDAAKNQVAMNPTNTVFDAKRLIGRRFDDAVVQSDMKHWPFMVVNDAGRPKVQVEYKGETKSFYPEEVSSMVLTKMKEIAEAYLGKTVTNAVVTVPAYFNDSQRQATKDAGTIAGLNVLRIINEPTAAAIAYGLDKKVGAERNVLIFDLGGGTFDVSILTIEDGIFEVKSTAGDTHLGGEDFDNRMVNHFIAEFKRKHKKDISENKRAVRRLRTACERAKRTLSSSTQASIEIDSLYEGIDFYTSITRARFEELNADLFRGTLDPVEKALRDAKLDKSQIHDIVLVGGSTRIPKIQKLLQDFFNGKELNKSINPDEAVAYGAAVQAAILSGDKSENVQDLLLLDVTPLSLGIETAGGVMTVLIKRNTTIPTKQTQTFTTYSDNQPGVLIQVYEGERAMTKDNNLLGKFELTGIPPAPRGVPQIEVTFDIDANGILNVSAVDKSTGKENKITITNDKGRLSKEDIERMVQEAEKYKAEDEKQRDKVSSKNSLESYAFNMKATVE
# Chain of Hsc70 (P63017 5-554): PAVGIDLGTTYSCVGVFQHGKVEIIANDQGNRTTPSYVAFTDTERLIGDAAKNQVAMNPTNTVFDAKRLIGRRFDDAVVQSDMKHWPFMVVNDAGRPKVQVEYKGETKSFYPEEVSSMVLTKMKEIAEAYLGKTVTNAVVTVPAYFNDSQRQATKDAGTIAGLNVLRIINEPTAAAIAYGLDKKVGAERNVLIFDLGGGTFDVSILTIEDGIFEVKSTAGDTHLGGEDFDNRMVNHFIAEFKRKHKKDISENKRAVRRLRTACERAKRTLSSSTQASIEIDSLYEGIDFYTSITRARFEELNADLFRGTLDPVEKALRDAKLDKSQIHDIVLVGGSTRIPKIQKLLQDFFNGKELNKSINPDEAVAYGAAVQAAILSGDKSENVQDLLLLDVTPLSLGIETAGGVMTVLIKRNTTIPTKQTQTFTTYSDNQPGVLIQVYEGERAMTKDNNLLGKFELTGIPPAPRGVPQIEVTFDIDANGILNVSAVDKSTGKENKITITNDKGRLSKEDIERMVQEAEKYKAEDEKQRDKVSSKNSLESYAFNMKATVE
compound,measurement,setting,value
Nc1ncnc2c1ncn2[C@@H]1O[C@H](COP(=O)(O)OP(=O)(O)OP(=O)(O)O)[C@@H](O)[C@H]1O [ATP],Kd,[1],210 ± 40 nM
same,Kd,[2],160 ± 60 nM
